According to patent US9993494B2, “Compositions and methods for treating fibrotic disease” (eFFECTOR Therapeutics, Inc., priority 2014, dated 2018):

Test system: normal human lung fibroblasts
Test: Ribosomal profiling: translational efficiency in TGFβ-treated fibroblasts
Type: cell-based
Method: Ribosomal profiling allows for measurement of changes in transcription and translation on a genome-wide basis accompanying TGFβ-dependent transformation of fibroblasts to myofibroblasts. Ribosomal profiles of the TGFβ-treated fibroblasts from Example 1 (about 6×10^6 cells/10 cm plate) were prepared and analyzed for changes in translational efficiencies with respect to potential disease-associated cellular changes accompanying this TGFβ-induced transformation.
Briefly, cells were washed with cold PBS supplemented with cycloheximide and lysed with 1× mammalian cell lysis buffer for 10 minutes on ice. Lysates were clarified by centrifugation for 10 minutes at 14,000 rpm and supernatants were collected. Cell lysates were processed to generate ribosomal protected fragments and total mRNA according to the instructions included with the ARTseq Ribosome Profiling Kit (Illumina, San Diego, Calif.). Sequencing of total RNA (RNA) and of ribosome-protected fragments of RNA (RPF) was carried out using RNA-Seq methodology according to the manufacturer's instructions (Illumina). To analyze the ribosomal profiles, RNA-Seq reads were processed with tools from the FASTX-Toolkit (fastq_quality_trimmer, fastx_clipper and fastx_trimmer). Unprocessed and processed reads were evaluated for a variety of quality measures using FastQC, and processed reads were mapped to the human genome using TopHat (see, e.g., Trapnell et al., Bioinformatics 25:1105, 2009). Gene-by-gene assessment of the number of fragments strictly and uniquely mapping to the coding region of each gene was conducted using HTSeq-count, a component of the HTSeq package. […] Genes with low counts in either RPF or RNA were excluded from differential analyses. Pathway and network analyses of differential data were conducted using Ingenuity Pathway Analysis (IPA).

TGFβ
Log2 TE RPS20 (ENSG00000008988, 5 replicates): 1.435 | change in translational profile of DNASE1L1 caused by TGFβ (ENSG00000013563, Control vs. TGFβ): D (D = <1.0 to 1.5) | Log2 TE VIM (ENSG00000026025, 5 replicates): 1.002 | Log2 TE ARHGAP6 (ENSG00000047648, 5 replicates): −1.082 | Log2 TE KITLG (ENSG00000049130, 5 replicates): −2.027 | change in translational profile of KITLG caused by TGFβ (ENSG00000049130, Control vs. TGFβ): A (A = <−2.5) | Log2 TE ADAMTS6 (ENSG00000049192, 5 replicates): 2.863 | change in translational profile of ADAMTS6 caused by TGFβ (ENSG00000049192, Control vs. TGFβ): F (F = >2.5) | Log2 TE LETMD1 (ENSG00000050426, 5 replicates): 1.27 | change in translational profile of LETMD1 caused by TGFβ (ENSG00000050426, Control vs. TGFβ): D (D = <1.0 to 1.5) | change in translational profile of PLEKHA5 caused by TGFβ (ENSG00000052126, Control vs. TGFβ): C (C = <−1.0 to −1.5) | Log2 TE LAMA3 (ENSG00000053747, 5 replicates): −1.233 | Log2 TE SYNE2 (ENSG00000054654, 5 replicates): −1.793 | change in translational profile of EIF4B caused by TGFβ (ENSG00000063046, Control vs. TGFβ): E (E = <1.5 to 2.5) | Log2 TE RPL18 (ENSG00000063177, 5 replicates): 1.612 | change in translational profile of RPL18 caused by TGFβ (ENSG00000063177, Control vs. TGFβ): E (E = <1.5 to 2.5) | Log2 TE LIMCH1 (ENSG00000064042, 5 replicates): −1.222 | change in translational profile of HIPK2 caused by TGFβ (ENSG00000064393, Control vs. TGFβ): C (C = <−1.0 to −1.5) | Log2 TE ASPM (ENSG00000066279, 5 replicates): −2.175 | change in translational profile of ASPM caused by TGFβ (ENSG00000066279, Control vs. TGFβ): A (A = <−2.5) | change in translational profile of RASSF1 caused by TGFβ (ENSG00000068028, Control vs. TGFβ): D (D = <1.0 to 1.5) | Log2 TE PABPC1 (ENSG00000070756, 5 replicates): 1.207 | change in translational profile of PABPC1 caused by TGFβ (ENSG00000070756, Control vs. TGFβ): D (D = <1.0 to 1.5) | Log2 TE RPL31 (ENSG00000071082, 5 replicates): 1.6 | change in translational profile of RPL31 caused by TGFβ (ENSG00000071082, Control vs. TGFβ): E (E = <1.5 to 2.5) | Log2 TE PLD1 (ENSG00000075651, 5 replicates): −1.032 | change in translational profile of PLD1 caused by TGFβ (ENSG00000075651, Control vs. TGFβ): B (B = <−1.5 to −2.5) | Log2 TE SNRPA (ENSG00000077312, 5 replicates): 1.462 | change in translational profile of EDN1 caused by TGFβ (ENSG00000078401, Control vs. TGFβ): E (E = <1.5 to 2.5) | Log2 TE CDC14B (ENSG00000081377, 5 replicates): −1.331 | Log2 TE RPS5 (ENSG00000083845, 5 replicates): 1.533 | Log2 TE AURKA (ENSG00000087586, 5 replicates): −1.736 | change in translational profile of AURKA caused by TGFβ (ENSG00000087586, Control vs. TGFβ): B (B = <−1.5 to −2.5) | Log2 TE EPB41L1 (ENSG00000088367, 5 replicates): 1.018 | change in translational profile of EPB41L1 caused by TGFβ (ENSG00000088367, Control vs. TGFβ): D (D = <1.0 to 1.5) | Log2 TE ARHGAP28 (ENSG00000088756, 5 replicates): −1.024 | Log2 TE RPL6 (ENSG00000089009, 5 replicates): 1.107 | change in translational profile of RPL6 caused by TGFβ (ENSG00000089009, Control vs. TGFβ): D (D = <1.0 to 1.5) | change in translational profile of P2RX7 caused by TGFβ (ENSG00000089041, Control vs. TGFβ): B (B = <−1.5 to −2.5) | change in translational profile of KDM2B caused by TGFβ (ENSG00000089094, Control vs. TGFβ): C (C = <−1.0 to −1.5) | change in translational profile of RPLP0 caused by TGFβ (ENSG00000089157, Control vs. TGFβ): D (D = <1.0 to 1.5) | Log2 TE IGBP1 (ENSG00000089289, 5 replicates): 1.266 | change in translational profile of IGBP1 caused by TGFβ (ENSG00000089289, Control vs. TGFβ): E (E = <1.5 to 2.5) | Log2 TE GRAMD1A (ENSG00000089351, 5 replicates): 1.069 | Log2 TE IRAK3 (ENSG00000090376, 5 replicates): −1.017 | change in translational profile of IRAK3 caused by TGFβ (ENSG00000090376, Control vs. TGFβ): C (C = <−1.0 to −1.5) | change in translational profile of PABPC4 caused by TGFβ (ENSG00000090621, Control vs. TGFβ): D (D = <1.0 to 1.5) | Log2 TE FMO2 (ENSG00000094963, 5 replicates): −2.146 | change in translational profile of FMO2 caused by TGFβ (ENSG00000094963, Control vs. TGFβ): A (A = <−2.5) | Log2 TE ACOT7 (ENSG00000097021, 5 replicates): 1.011 | change in translational profile of ACOT7 caused by TGFβ (ENSG00000097021, Control vs. TGFβ): D (D = <1.0 to 1.5) | change in translational profile of ATP5D caused by TGFβ (ENSG00000099624, Control vs. TGFβ): D (D = <1.0 to 1.5) | change in translational profile of LGALS1 caused by TGFβ (ENSG00000100097, Control vs. TGFβ): D (D = <1.0 to 1.5) | Log2 TE EIF3L (ENSG00000100129, 5 replicates): 1.429 | change in translational profile of EIF3L caused by TGFβ (ENSG00000100129, Control vs. TGFβ): D (D = <1.0 to 1.5) | Log2 TE RPL3 (ENSG00000100316, 5 replicates): 1.78 | change in translational profile of RPL3 caused by TGFβ (ENSG00000100316, Control vs. TGFβ): E (E = <1.5 to 2.5) | Log2 TE TIMM9 (ENSG00000100575, 5 replicates): 1.113
